For orientation: melting point means the temperature of the solid-liquid transition. As a reminder, the IC50 is the concentration needed to halve the response being measured.

The structures appear in SMILES notation. Some results are limits rather than exact numbers.

Data set [1] relates to bicistronic HCV replicon (replicon RNA, GenBank Accession No. AJ242654). The data set can be described thus: HCV Replicon Assay. The format is cell-based. Particulars: Hepatitis C virus, 72 h, read-out: Replicon IC50. (Replicon systems follow genome replication, usually without infectious particles.)

In turn, `Cc1cc2c(cc1F)c(C#N)c(-c1ccc(S(=O)(=O)N[C@H](C)C(F)(F)F)cn1)n2-c1ccccn1` [compound 698, 6-[3-cyano-5-fluoro-6-methyl-1-(pyridin-2-yl)-1H-indol-2-yl]-N-[(2R)-1,1,1-trifluoropropan-2-yl]pyridine-3-sulfonamide] came in with a melting point of 170 to 174 °C. For the same molecule, the IC50 in data set [1] was under 500 nM.

Consider `Cc1ccc2c(C#N)c(-c3ccc(S(=O)(=O)NC(CF)CF)cn3)n(C3CCCC3)c2c1` [compound 44, 6-(3-cyano-1-cyclopentyl-6-methyl-1H-indol-2-yl)-N-(1,3-difluoropropan-2-yl)pyridine-3-sulfonamide], for which the melting point is 144 to 145 °C. Besides, the IC50 in data set [1] is under 500 nM.

For the molecule `C[C@H](NS(=O)(=O)c1ccc(-c2c(C#N)c3cc(C#N)ccc3n2C2CCCC2)nc1)C(F)(F)F` [compound 346, 6-(3,5-dicyano-1-cyclopentyl-1H-indol-2-yl)-N-[(2S)-1,1,1-trifluoropropan-2-yl]pyridine-3-sulfonamide], the melting point is 225 to 228 °C. For the same molecule, the half-maximal inhibitory concentration (IC50) in data set [1] is under 500 nM.

Molecule `CCS(=O)(=O)Nc1ccc(-c2c(C#N)c3ccc(OC(C)C)cc3n2CC2CC2)nc1` [compound 279, N-{6-[3-cyano-1-(cyclopropylmethyl)-6-(propan-2-yloxy)-1H-indol-2-yl]pyridin-3-yl}ethanesulfonamide] displayed a melting point of 149 to 154 °C. Besides, the IC50 in data set [1] was 500 to 2000 nM.

The molecule `C[C@H](NS(=O)(=O)c1ccc(-c2c(C#N)c3cc(F)ccc3n2C2CCCCC2)nc1)C(F)(F)F` [compound 410, 6-(3-cyano-1-cyclohexyl-5-fluoro-1H-indol-2-yl)-N-[(2S)-1,1,1-trifluoropropan-2-yl]pyridine-3-sulfonamide] gave a melting point of 209 to 211 °C. Moreover, the half-maximal inhibitory concentration (IC50) in data set [1] was under 500 nM.

Regarding `CC(C)(C)S(=O)(=O)Nc1ccc(-c2c(C#N)c3cc(F)c(C4CC4)cc3n2-c2ccccc2)cn1` [compound 1101, N-[5-(3-cyano-6-cyclopropyl-5-fluoro-1-phenyl-1H-indol-2-yl)pyridin-2-yl]-2-methylpropane-2-sulfonamide], the melting point fell in the range of 249 to 250 °C. Also, in data set [1], the IC50 lay within 500 to 2000 nM.

Regarding `CCc1cc2c(cc1F)c(C#N)c(-c1ccc(S(=O)(=O)N[C@H](C)C(F)(F)F)cn1)n2-c1ccc(F)cn1` [compound 880, 6-[3-cyano-6-ethyl-5-fluoro-1-(5-fluoropyridin-2-yl)-1H-indol-2-yl]-N-[(2R)-1,1,1-trifluoropropan-2-yl]pyridine-3-sulfonamide], the melting point fell in the range of 209 to 216 °C. Besides, the half-maximal inhibitory concentration (IC50) in data set [1] was under 500 nM.

`CCc1cc2c(cc1F)c(C#N)c(-c1ccc(S(=O)(=O)N[C@@H](C)C(F)(F)F)cn1)n2-c1cccc(C#N)c1` [compound 1012, 6-[3-cyano-1-(3-cyanophenyl)-6-ethyl-5-fluoro-1H-indol-2-yl]-N-[(2S)-1,1,1-trifluoropropan-2-yl]pyridine-3-sulfonamide] had a melting point of 244 to 248 °C. Moreover, the IC50 in data set [1] lay within 500 to 2000 nM.

Molecule `COc1ccc2c(C#N)c(-c3ncc(S(=O)(=O)NC(CF)CF)cn3)n(C3CCCCC3)c2c1` [compound 520, 2-(3-cyano-1-cyclohexyl-6-methoxy-1H-indol-2-yl)-N-(1,3-difluoropropan-2-yl)pyrimidine-5-sulfonamide] displayed a melting point of 209 to 215 °C. In addition, the half-inhibitory concentration (IC50) in data set [1] lay within 500 to 2000 nM.

Regarding `N#Cc1c(-c2ccc(S(=O)(=O)NC(CF)CF)cn2)n(C2CCCC2)c2cc(Cl)ccc12` [compound 64, 6-(6-chloro-3-cyano-1-cyclopentyl-1H-indol-2-yl)-N-(1,3-difluoropropan-2-yl)pyridine-3-sulfonamide], the melting point was in the range of 236 to 240 °C. For the same molecule, the IC50 in data set [1] was under 500 nM.

The molecule `Cc1ccc2c(c1)c(C#N)c(-c1ncc(S(=O)(=O)NC(C)C)cn1)n2C1CCC1` [compound 121, 2-(3-cyano-1-cyclobutyl-5-methyl-1H-indol-2-yl)-N-(propan-2-yl)pyrimidine-5-sulfonamide] gave a melting point of 134 to 138 °C. In addition, in data set [1], the IC50 is under 500 nM.

Consider `CC(=O)N([C@H](C)C(F)(F)F)S(=O)(=O)c1ccc(-c2c(C#N)c3cc(F)c(C)cc3n2C2CCCC2)nc1` [compound 709, N-{[6-(3-cyano-1-cyclopentyl-5-fluoro-6-methyl-1H-indol-2-yl)pyridin-3-yl]sulfonyl}-N-[(2R)-1,1,1-trifluoropropan-2-yl]acetamide], for which the melting point is 162 to 163 °C. In addition, the IC50 in data set [1] was under 500 nM.

As to `C[C@H](NS(=O)(=O)c1ccc(-c2c(C#N)c3ccc(C4CC4)cc3n2-c2ccccn2)nc1)C(F)(F)F` [compound 502, 6-[3-cyano-6-cyclopropyl-1-(pyridin-2-yl)-1H-indol-2-yl]-N-[(2S)-1,1,1-trifluoropropan-2-yl]pyridine-3-sulfonamide], the melting point was in the range of 185 to 189 °C. Further, the IC50 in data set [1] is under 500 nM.

On to `Cc1cc2c(cc1F)c(C#N)c(-c1ccc(S(=O)(=O)N[C@@H](C)C(F)(F)F)cn1)n2-c1ccc(S(N)(=O)=O)s1` [compound 1034, 6-[3-cyano-5-fluoro-6-methyl-1-(5-sulfamoylthiophen-2-yl)-1H-indol-2-yl]-N-[(2S)-1,1,1-trifluoropropan-2-yl]pyridine-3-sulfonamide], for which the melting point was in the range of 131.6 to 137.7 °C. For the same molecule, the IC50 in data set [1] was 500 to 2000 nM.

Regarding `Cc1cc2c(cc1O)c(C#N)c(-c1ccc(S(=O)(=O)NC(C)(C)C)cn1)n2C1CCC1` [compound 805, N-tert-butyl-6-(3-cyano-1-cyclobutyl-5-hydroxy-6-methyl-1H-indol-2-yl)pyridine-3-sulfonamide], the melting point is 211 to 213 °C. Moreover, the IC50 in data set [1] lay in the range of 500 to 2000 nM.

`C[C@H](NS(=O)(=O)c1cnc(-c2c(C#N)c3ccc(F)cc3n2C2CCC2)nc1)C(F)(F)F` [compound 494, 2-(3-cyano-1-cyclobutyl-6-fluoro-1H-indol-2-yl)-N-[(2S)-1,1,1-trifluoropropan-2-yl]pyrimidine-5-sulfonamide] returned a melting point of 223 to 225 °C. For the same molecule, the IC50 in data set [1] is 2000 to 5000 nM.

`C[C@H](NS(=O)(=O)c1ccc(-c2c(C#N)c3ccc(C#N)cc3n2CC2CC2)nc1)C1CC1` [compound 350, N-[(1S)-1-cyclopropylethyl]-6-[3,6-dicyano-1-(cyclopropylmethyl)-1H-indol-2-yl]pyridine-3-sulfonamide] came in with a melting point of 203 to 208 °C. In data set [1], the IC50 fell in the range of 500 to 2000 nM.

In turn, `Cc1cc2c(cc1F)c(C#N)c(-c1ccc(S(=O)(=O)N[C@@H](C)C(F)(F)F)cn1)n2-c1ccc(C(F)(F)F)cn1` [compound 740, 6-{3-cyano-5-fluoro-6-methyl-1-[5-(trifluoromethyl)pyridin-2-yl]-1H-indol-2-yl}-N-[(2S)-1,1,1-trifluoropropan-2-yl]pyridine-3-sulfonamide] returned a melting point of 253 to 255 °C. The IC50 in data set [1] is under 500 nM.

Molecule `CC(C)n1c(-c2ccc(S(=O)(=O)N[C@@H](C)C(F)(F)F)cn2)c(C#N)c2c(F)cc(OC(F)F)cc21` [compound 784, 6-[3-cyano-6-(difluoromethoxy)-4-fluoro-1-(propan-2-yl)-1H-indol-2-yl]-N-[(2S)-1,1,1-trifluoropropan-2-yl]pyridine-3-sulfonamide] showed a melting point of 193 to 194 °C. Moreover, in data set [1], the IC50 was under 500 nM.

In turn, `Cc1cc2c(cc1F)c(C(=O)O)c(-c1ccc(S(=O)(=O)N[C@@H](C)C(F)(F)F)cn1)n2C1CCC1` [compound 793, 1-cyclobutyl-5-fluoro-6-methyl-2-(5-{[(2S)-1,1,1-trifluoropropan-2-yl]sulfamoyl}pyridin-2-yl)-1H-indole-3-carboxylic acid] returned a melting point of 234 to 240 °C. Also, in data set [1], the IC50 was under 500 nM.

`CCc1ccc2c(c1)c(C#N)c(-c1ccc(S(=O)(=O)NC(CF)CF)cn1)n2C1CCC1` [compound 258, 6-(3-cyano-1-cyclobutyl-5-ethyl-1H-indol-2-yl)-N-(1,3-difluoropropan-2-yl)pyridine-3-sulfonamide] came in with a melting point of 163 to 164 °C. Also, the IC50 in data set [1] is under 500 nM.

As for `CCc1ccc2c(c1)c(C#N)c(-c1ccc(S(=O)(=O)N[C@@H](C)C(F)(F)F)cn1)n2C1CCCC1` [compound 374, 6-(3-cyano-1-cyclopentyl-5-ethyl-1H-indol-2-yl)-N-[(2S)-1,1,1-trifluoropropan-2-yl]pyridine-3-sulfonamide], the melting point fell in the range of 159.5 to 160.5 °C. Moreover, the IC50 in data set [1] was under 500 nM.

Turning to `CC(C)(C)S(=O)(=O)Nc1ccc(-c2c(C#N)c3c(F)cc(C4CC4)cc3n2C2CCCCC2)nc1` [compound 1092, N-[6-(3-cyano-1-cyclohexyl-6-cyclopropyl-4-fluoro-1H-indol-2-yl)pyridin-3-yl]-2-methylpropane-2-sulfonamide], the melting point was in the range of 252 to 255 °C. The IC50 in data set [1] is under 500 nM.

As to `CC(C)NS(=O)(=O)c1cnc(-c2c(C(N)=O)c3ccc(OC(F)(F)F)cc3n2C2CCC2)nc1` [compound 781, 1-cyclobutyl-2-[5-(propan-2-ylsulfamoyl)pyrimidin-2-yl]-6-(trifluoromethoxy)-1H-indole-3-carboxamide], the melting point was 222 to 223 °C. Moreover, the IC50 in data set [1] was under 500 nM.

As to `CCc1cc2c(cc1F)c(C(N)=O)c(-c1ccc(S(=O)(=O)N[C@@H](C)C(F)(F)F)cn1)n2-c1ccc(Cl)cc1` [compound 1020, 1-(4-chlorophenyl)-6-ethyl-5-fluoro-2-(5-{[(2S)-1,1,1-trifluoropropan-2-yl]sulfamoyl}pyridin-2-yl)-1H-indole-3-carboxamide], the melting point lay within 240 to 247 °C. For the same molecule, in data set [1], the IC50 is under 500 nM.

Values taken from patent US8735414B2 (priority 2009, dated 2014).
